The text below walks through data of patent publication US11130769B2 (Prelude Therapeutics Incorporated, priority 2018, dated 2021).

pIC50, pKi: −log10 of the molar value.

Assay [1] deals with H929 cells. In words: Cell viability assay (H929 10 FBS). The class given is cell-based. As to conditions: Homo sapiens, NCI-H929, 24 hours, read-out: H929_10FBS IC50. In outline: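 ATP-based luminescence (CellTiter-Glo or ATPlite 1 Step, 30-60 min at RT) gauged viability of H929 myeloma cells after 24 h compound treatment at 37 °C. Cells plated at 4000 per well in 10% FBS RPMI 1640 supplemented with pyruvate, HEPES and glucose.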

Assay [2] concerns the target MCL-1 (Homo sapiens (Human), UniProt Q07820). In words: Cell free Mcl-1:Bim affinity assay (fluorescence polarization competition). The class given is binding. As to conditions: 15 nM MCL-1, 5 nM FITC-Bim, 1 hour at room temperature; class symbols; read-out: BIM_Ki. As to the method: The binding affinity of each compound was measured via a fluorescence polarization competition assay, in which the compound competes for the same binding site with the ligand, and thus leads to a dose-dependent anisotropy reduction. The tracer ligand utilized was a fluorescein isothiocyanate labelled peptide (FITC-[…]) derived from Bim (GenScript).
The assay was carried out in black half-area 96-well NBS plate (Corning), containing 15 nM of MCL-1 (BPS Bioscience), 5 nM of FITC-Bim and 3-fold serial diluted test compounds in a total volume of 50 μL of assay buffer (20 mM HEPES, 50 mM NaCl, 0.002% Tween 20, 1 mM TCEP, and 1% DMSO). The reaction plate was incubated for 1 hour at room temperature. The change of anisotropy is measured with an Envision multimode plate reader (PerkinElmer) at emission wavelength 535 nm. Fluorescence polarization was calculated in mP unit and the percentage inhibition was calculated by % inhibition=100×(mPDMSO−mP)/(mPDMSO−mPPC), in which mPDMSO is the DMSO control, and mPpc is the positive control. IC50 values were determined from a 10-point dose response curve by fitting the percent inhibition against compound concentration using the GraphPad Prism software. The inhibition constant Ki was subsequently calculated according to the Nikolovska-Coleska's equation (Anal. Biochem., 2004, 332, 261),
[formula] • where [I]50 is the concentration of the free inhibitor at 50% inhibition, [L]50 is the concentration of the free labeled ligand at 50% inhibition, [P]0 is the concentration of the free protein at 0% inhibition, and Kd is the dissociation constant of the protein-ligand complex. See Table F. Caspase 3/7 Activity Assay

Chain of MCL-1 (Q07820 whole entry): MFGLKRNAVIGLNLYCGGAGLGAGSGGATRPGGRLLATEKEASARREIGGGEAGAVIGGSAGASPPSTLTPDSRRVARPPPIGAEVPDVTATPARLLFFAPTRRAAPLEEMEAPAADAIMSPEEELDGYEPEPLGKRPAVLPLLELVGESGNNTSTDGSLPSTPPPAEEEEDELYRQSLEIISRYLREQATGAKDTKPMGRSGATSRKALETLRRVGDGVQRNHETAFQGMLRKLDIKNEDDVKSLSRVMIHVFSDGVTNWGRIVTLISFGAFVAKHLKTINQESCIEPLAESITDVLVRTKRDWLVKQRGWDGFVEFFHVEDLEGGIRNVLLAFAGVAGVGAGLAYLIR

What is called pIC50 is the negative decadic logarithm of the IC50, by convention in mol/L. As for `CC1(C)OC/C=C/[C@H](OCCN2CCC2)[C@@H]2CC[C@H]2CN2C[C@@]3(CCCc4cc(Cl)ccc43)COc3ccc(cc32)S(=O)(=O)NC1=O` [Example 262, (3R,6R,7S,8E,22S)-7-[2-(Azetidin-1-yl)ethoxy]-6′-chloro-12,12-dimethyl-15,15-dioxo-spiro[11,20-dioxa-15-thia-1,14-diazatetracyclo[14.7.2.03,6.019,24]pentacosa-8,16,18,24-tetraene-22,1′-tetralin]-13-one], in assay [1], the pIC50 was over 6.30. In assay [2], the pKi was over 9.00.

Turning to `CN(C)C(=O)N(C)[C@H]1/C=C/COC(C)(C)C(=O)NS(=O)(=O)c2ccc3c(c2)N(C[C@@H]2CC[C@H]21)C[C@@]1(CCCc2cc(Cl)ccc21)CO3` [Example 257, 1,1,3-Trimethyl-3-[(3R,6R,7S,8E,22S)-6′-chloro-12,12-dimethyl-13,15,15-trioxo-spiro[11,20-dioxa-15-thia-1,14-diazatetracyclo[14.7.2.03,6.019,24]pentacosa-8,16(25),17,19(24)-tetraene-22,1′-tetralin]-7-yl]urea], the pIC50 in assay [1] is under 6.00. Further, the pKi in assay [2] was 7.00 to 9.00.

Turning to `CC1(C)OC/C=C/[C@H](OC(=O)N2CCN(C3COC3)CC2)[C@@H]2CC[C@H]2CN2C[C@@]3(CCCc4cc(Cl)ccc43)COc3ccc(cc32)S(=O)(=O)NC1=O` [Example 187, [(3R,6R,7S,8E,22S)-6′-Chloro-12,12-dimethyl-13,15,15-trioxo-spiro[11,20-dioxa-15-thia-1,14-diazatetracyclo[14.7.2.03,6.019,24]pentacosa-8,16,18,24-tetraene-22,1′-tetralin]-7-yl] 4-(oxetan-3-yl)piperazine-1-carboxylate], the pIC50 in assay [1] was over 6.30. In assay [2], the pKi was over 9.00.

In the case of `CN(C)C(=O)OC1CCCOC(C)(C)C(=O)NS(=O)(=O)c2ccc3c(c2)N(C[C@@H]2CC[C@@H]12)C[C@@]1(CCCc2cc(Cl)ccc21)CO3` (stereo partly drawn) [Example 286, [(3R,6R,22S)-6′-Chloro-12,12-dimethyl-13,15,15-trioxo-spiro[11,20-dioxa-15-thia-1,14-diazatetracyclo[14.7.2.03,6.019,24]pentacosa-16,18,24-triene-22,1′-tetralin]-7-yl] N,N-dimethylcarbamate], the pIC50 in assay [1] was under 6.00. Further, the pKi in assay [2] was 7.00 to 9.00.

With `CN1C/C=C/[C@H](OC(=O)N2CCC2)[C@@H]2CC[C@H]2CN2C[C@@]3(CCCc4cc(Cl)ccc43)COc3ccc(cc32)S(=O)(=O)NC(=O)C1(C)C` [Example 216, [(3R,6R,7S,8E,22S)-6′-Chloro-11,12,12-trimethyl-13,15,15-trioxo-spiro[20-oxa-15-thia-1,11,14-triazatetracyclo[14.7.2.03,6.019,24]pentacosa-8,16,18,24-tetraene-22,1′-tetralin]-7-yl]azetidine-1-carboxylate], the pIC50 in assay [1] was over 6.30. In addition, the pKi in assay [2] was over 9.00.

Regarding `CO[C@@H]1/C=C/CN[C@@H](C2CC2)C(=O)NS(=O)(=O)c2ccc3c(c2)N(C[C@@H]2CC[C@H]21)C[C@@]1(CCCc2cc(Cl)ccc21)CO3` [Example 126, (3R,6R,7R,8E,12S,22S)-6′-Chloro-7-methoxy-12-cyclopropyl-15,15-dioxo-spiro[20-oxa-15-thia-1,11,14-triazatetracyclo[14.7.2.03,6.019,24]pentacosa-8,16,18,24-tetraene-22,1′-tetralin]-13-one], the pIC50 in assay [1] is under 6.00. In assay [2], the pKi was 7.00 to 9.00.

Regarding `CC1(C)OC/C=C/[C@H](OC(=O)N[C@H]2CCOC2)[C@@H]2CC[C@H]2CN2C[C@@]3(CCCc4cc(Cl)ccc43)COc3ccc(cc32)S(=O)(=O)NC1=O` [Example 61, [(3R,6R,7S,8E,22S)-6′-Chloro-12,12-dimethyl-13,15,15-trioxo-spiro[11,20-dioxa-15-thia-1,14-diazatetracyclo[14.7.2.03,6.019,24]pentacosa-8,16,18,24-tetraene-22,1′-tetralin]-7-yl] N-[(3S)-tetrahydrofuran-3-yl]carbamate], the negative-log IC50 (pIC50) in assay [1] is over 6.30. In assay [2], the pKi was over 9.00.
